Laboratory results published in paper PMC5155426, “Organic Redox Species in Aqueous Flow Batteries: Redox Potentials, Chemical Stability and Solubility” (Scientific Reports, 2016).
Values after ≈ are worked out from the molar mass of the structure shown. Values joined by “and” are separate entries in the source; they are usually repeats but may differ in a detail not shown here. Identical values can stand only once. “Also recorded” adds a separate entry of the source.

Assays:
[1] = Cyclic voltammetry: formal redox potential, peak current ratio, electrochemical reversibility; format: physicochemical; conditions: for formal redox potential E0': midpoint of CV peak potentials
Experimental: The investigated compounds were used as-purchased and without any purification. […] For each series of CVs, a freshly polished electrode was used. The CVs for soluble compounds in 1 mM concentration were recorded in a glass beaker with a customized lid in nitrogen purged solutions of three different pHs, namely pH 0 (1 M H2SO4), pH 7 (0.5 M phosphate buffer) and pH 13 (1 M NaOH). The pH of the NaOH solution is taken as 13 to account for carbonization of the solution with exposure to air. A background CV was recorded before each CV experiment to exclude background contaminations. The CVs of insoluble compounds in 1 M H2SO4, or 0.5 M phosphate buffer were recorded as follows: 6 mL of the supporting electrolyte was mixed with approximately 4 mL of acetone, and then a small amount of the quinone was added so that its concentration was around 1 mM.
Each CV was analyzed in terms of peak potentials and peak currents. Peak currents were determined by subtracting a polynomial fit of the background from the recorded current as exemplified in Supplementary, S1. A plot of the absolute values of the peak currents to the square root of the scan rate was constructed and, when reasonable, a linear fit included to evaluate the electrochemical (Nernstian) reversibility of the electrochemical reaction. The peak current Ip for reversible reactions are given by equation (1).
Where F is the Faraday constant, R the gas constant, T the temperature, n the number of electron transferred, A the area of the electrode, DOthe diffusion coefficient and CO^*the bulk concentration of the analyte and v the scan rate. The peak current ratio is expected to be close to one for reversible species. The formal redox potential (E^0’), which is the adjusted form of the standard redox potential, where effects of the medium is taken into account, is reported here as the midpoint potential between the two peak potentials in the CV[24]. All half-cell potentials in this work refer to the normal hydrogen electrode (VNHE).

[2] = Aqueous solubility estimation (OECD test #105) in 1 M supporting electrolytes; conditions: for solubility: thermodynamic from solid
Experimental: After each addition the test tube was ultrasonicated and/or shaken vigorously using a Vortex Generator for at least 10 minutes at room temperature. Then the tube was inspected visually for undissolved sample and the addition of supporting electrolyte solution continued until the sample seemed just dissolved. The volumes just before and after full dissolution are used for calculating the solubility interval (Supplementary, S4 and S5) and the solubility is estimated as the average between the two.

[3] = Visual inspection of dissolved samples on standing (thixotropy, phase separation); format: physicochemical
Experimental: Dissolved samples were left to stand for 12 hours and visually inspected for thixotropy using a vortex generator. For very insoluble compounds the amount of sample was decreased to 0.01 g and the dissolution time increased up to 24 h.
In practical RFBs thixotropy is not wanted, as the redox solutions can be kept still for long times. […] Thixotropy of AQ dyes in aqueous dispersions has been described earlier, as well as some methods to overcome the problem such as addition of polyvinylpyrrolidone to the solution[43].

[4] = pH 0 (1 M H2SO4), about 1 mM, acetone added for insoluble compounds
[5] = 1 M H2SO4 supporting electrolyte prepared from MilliQ water, aqueous buffer, 1 M H2SO4, room temperature, interval just after / before full dissolution
[6] = 1 M KCl supporting electrolyte prepared from MilliQ water, saline or isotonic, 1 M KCl, room temperature
[7] = 1 M KOH supporting electrolyte prepared from MilliQ water, aqueous buffer, 1 M KOH, room temperature

Peak current ratio ([1]; pH 0)	formal redox potential E0' [1, 4]	Peak current ratio ([1]; pH 7)	Electrochemical reversibility ([1]; pH 13)	Peak current ratio ([1]; pH 13)	solubility [2, 5] [mM]	solubility [2, 6] [mM]	SMILES	Comment: behaviour of the solution upon standing ([3]; in KOH (1 M))	also measured
0.39(6)	0.041(9) VNHE	0.69(8)	Reversible	1.23(7)	< 10	< 10	O=C(O)c1cc(O)c2c(c1)C(=O)c1cccc(O)c1C2=O [AQDH(4,5)CA, 4,5-dihydroxy-9,10-anthraquinone-2-carboxylic acid]	thixotropy was observed	Electrochemical reversibility ([1]; pH 7): Quasireversible; formal redox potential E0' ([1]; pH 7 (0.5 M phosphate buffer)): -0.267(1) VNHE; formal redox potential E0' ([1]; pH 13 (1 M NaOH)): around −0.53 VNHE; formal redox potential E0' ([1]; pH 13 (1 M NaOH), listed as AQDH(4,5)C A): -0.546(2) VNHE; Comment: behaviour of the solution upon standing ([3]; in KOH (1 M), listed as AQDH(4,5)C A): T hixotr opic behavior
1.7(1)	−0.03 VNHE	0.49(3)	Reversible	1.17(4)	–	–	O=C1c2cccc(S(=O)(=O)[O-])c2C(=O)c2cccc(S(=O)(=O)[O-])c21.[Na+].[Na+] [AQDS(1,5), 9,10-anthraquinone-1,5-disulfonate disodium]	–	Electrochemical reversibility ([1]; pH 0): Quasireversible; Electrochemical reversibility ([1]; pH 7): Quasireversible; solubility [2, 7]: < 10 mM; solubility compared with AQDS(2,7) and AQS(2) ([2]; sulfonated AQs): more than ten times lower solubility; Comment: behaviour of the solution upon standing ([3]; electrolyte not stated): Phase separation
0.6(1)	–	0.4(2)	Reversible	1.05(3)	< 10	< 10	O=C1c2ccccc2C(=O)c2c(O)ccc(O)c21 [AQDH(1,4), 1,4-dihydroxy-9,10-anthraquinone]	T hixotropic; also recorded: thixotropy was observed	–
0.81(8)	0.308(4) VNHE	1.2(3)	seemingly reversible	0.73(6)	< 10	< 10	O=C1C=C(O)C(=O)c2ccccc21 [NQ(1,4)H, 2-hydroxy-1,4-naphtoquinone]	–	change of E0' from acidic (pH 0) to alkaline (pH 13) ([1]; 13 pH units): 0.8 V; pH dependence (slope) of E0' ([1]; pH 0 to pH 13): 67 mV/pH unit; Electrochemical reversibility ([1]; pH not specified): Quasireversible; solubility [2, 7]: 820 mM (≈ 143000 µg/mL)

SMILES	Peak current ratio ([1]; pH 0)	formal redox potential E0' [1, 4]	Peak current ratio ([1]; pH 7)	Electrochemical reversibility ([1]; pH 13)	Peak current ratio ([1]; pH 13)	solubility [2, 5] [mM]	solubility [2, 6] [mM]	Comment: behaviour of the solution upon standing ([3]; in KOH (1 M))	also measured
O=C1c2cccc(O)c2C(=O)c2c(O)cc(CO)cc21 [AQDH(1,8)MH, 1,8-dihydroxy-3-(hydroxymethyl)-9,10-anthraquinone]	0.58(4)	–	0.51(4)	Reversible	1.03(1)	< 10	< 10	thixotropy was observed	Comment: behaviour of the solution upon standing ([3]; in KOH (1 M), listed as AQDG(1,8)MH): T hixotropic behavior
O=C1c2ccccc2C(=O)c2cc(S(=O)(=O)O)ccc21 [AQS(2), 9,10-anthraquinone-2-sulfonate sodium]	1.0(1)	0.163(3) VNHE and 0.163 VNHE	0.88(1)	–	1.2(2)	–	–	–	formal redox potential E0' ([1]; pH 13 (1 M NaOH)): -0.334(3) VNHE; Electrochemical reversibility ([1]; pH not specified): Reversible; Comment: behaviour of the solution upon standing ([3]; electrolyte not stated): Phase separation
O=C1c2ccccc2C(=O)c2c1ccc(O)c2O [AQDH(1,2), 1,2-dihydroxy-9,10-anthraquinone]	0.73(7)	0.005(4) VNHE	0.5(1)	Quasireversible	1.2(1)	< 10	< 10	T hixotropic; also recorded: thixotropy was observed	–
